Experimental data: PubChem BioAssay AID1963834 (Molecular Pharmacology Branch, DTP, NCI, 2024)

Tested on: 873145-292-R-J1-PDC complex spheroid viability
Assay: Anticancer human tumor 873145-292-R-J1-PDC patient-derived renal clear cell carcinoma cell line growth inhibition [POLQ]
Conditions: for IC50: curve of first compound; for viability, T/C: stronger effect = lower value; active means viability on the fitted dose curve at most 10% of control; inactive means the rest
Procedure, shortened: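 Complex spheroid viability model combining PDC tumour cells with endothelial (HUVEC) and MSC stromal cells. Novobiocin, ART-558 or RP6685 were tested singly and in combination with standard and investigational anticancer drugs. Each was titrated in half-log steps from near clinical Cmax, or from 10 microM where Cmax was unknown.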

[1] = second compound 0.0316 µM, first compound 0.0316 µM
[2] = second compound 0.0316 µM, first compound 0.1 µM
[3] = second compound 0.0316 µM, first compound 0.316 µM
[4] = second compound 0.0316 µM, first compound 1 µM
[5] = second compound 0.0316 µM, first compound 3.16 µM
[6] = second compound 0.0316 µM, first compound 10 µM
[7] = second compound 0.1 µM, first compound 0.0316 µM
[8] = second compound 0.1 µM, first compound 0.1 µM
[9] = second compound 0.1 µM, first compound 0.316 µM
[10] = second compound 0.1 µM, first compound 1 µM
[11] = second compound 0.1 µM, first compound 3.16 µM
[12] = second compound 0.1 µM, first compound 10 µM
[13] = second compound 0.316 µM, first compound 0.0316 µM
[14] = second compound 0.316 µM, first compound 0.1 µM
[15] = second compound 0.316 µM, first compound 0.316 µM
[16] = second compound 0.316 µM, first compound 1 µM
[17] = second compound 0.316 µM, first compound 3.16 µM
[18] = second compound 0.316 µM, first compound 10 µM
[19] = second compound 1 µM, first compound 0.0316 µM
[20] = second compound 1 µM, first compound 0.1 µM
[21] = second compound 1 µM, first compound 0.316 µM
[22] = second compound 1 µM, first compound 1 µM
[23] = second compound 1 µM, first compound 3.16 µM
[24] = second compound 1 µM, first compound 10 µM
[25] = second compound 3.16 µM, first compound 0.0316 µM
[26] = second compound 3.16 µM, first compound 0.1 µM
[27] = second compound 3.16 µM, first compound 0.316 µM
[28] = second compound 3.16 µM, first compound 1 µM
[29] = second compound 3.16 µM, first compound 3.16 µM
[30] = second compound 3.16 µM, first compound 10 µM
[31] = second compound 10 µM, first compound 0.0316 µM
[32] = second compound 10 µM, first compound 0.1 µM
[33] = second compound 10 µM, first compound 0.316 µM
[34] = second compound 10 µM, first compound 1 µM
[35] = second compound 10 µM, first compound 3.16 µM
[36] = second compound 10 µM, first compound 10 µM
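Further: spheroids exposed to compounds for 7 days before viability readout.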
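Wherever viability, T/C is given: luminescence signal used as surrogate for viable cell content; 100% = DMSO vehicle control viability.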

CCc1cc2c(N3CCc4c(cc(Cn5ccnc5)cc4-c4cn(C)nc4C(F)(F)F)C3=O)cc(C)nc2c(OC)n1 + Nc1ccc(C#CCN(C(=O)Cc2ncc(C(F)(F)F)cc2C(F)(F)F)c2ccc(F)cc2)nn1
> 10 µM: IC50 (second compound 0.0316 µM) | IC50 (second compound 0.1 µM) | IC50 (second compound 0.316 µM) | IC50 (second compound 1 µM) | IC50 (second compound 3.16 µM) | IC50 (second compound 10 µM)
inactive: viability, T/C [1] 92.6% | viability, T/C [2] 110% | viability, T/C [3] 101% | viability, T/C [4] 91.2% | viability, T/C [5] 80.6% | viability, T/C [6] 75.2% | viability, T/C [7] 103% | viability, T/C [8] 100% | viability, T/C [9] 77.9% | viability, T/C [10] 93% | viability, T/C [11] 79.2% | viability, T/C [12] 68.6% | viability, T/C [13] 94.4% | viability, T/C [14] 109% | viability, T/C [15] 74% | viability, T/C [16] 90.7% | viability, T/C [17] 95.8% | viability, T/C [18] 73.6% | viability, T/C [19] 101% | viability, T/C [20] 92.5% | viability, T/C [21] 91.9% | viability, T/C [22] 95.8% | viability, T/C [23] 77.6% | viability, T/C [24] 76.8% | viability, T/C [25] 97.9% | viability, T/C [26] 104% | viability, T/C [27] 97.6% | viability, T/C [28] 93% | viability, T/C [29] 85.7% | viability, T/C [30] 78.9% | viability, T/C [31] 105% | viability, T/C [32] 101% | viability, T/C [33] 98% | viability, T/C [34] 97.3% | viability, T/C [35] 89% | viability, T/C [36] 69.2%

CCc1cc2c(N3CCc4c(cc(Cn5ccnc5)cc4-c4cn(C)nc4C(F)(F)F)C3=O)ccnc2c(OC)n1 + Nc1ccc(C#CCN(C(=O)Cc2ncc(C(F)(F)F)cc2C(F)(F)F)c2ccc(F)cc2)nn1
> 10 µM: IC50 (second compound 0.0316 µM) | IC50 (second compound 0.1 µM) | IC50 (second compound 0.316 µM) | IC50 (second compound 1 µM) | IC50 (second compound 3.16 µM) | IC50 (second compound 10 µM)
inactive: viability, T/C [1] 97.9% | viability, T/C [2] 106% | viability, T/C [3] 87.8% | viability, T/C [4] 89.5% | viability, T/C [5] 81.3% | viability, T/C [6] 80.9% | viability, T/C [7] 98.7% | viability, T/C [8] 110% | viability, T/C [9] 82.9% | viability, T/C [10] 92.8% | viability, T/C [11] 102% | viability, T/C [12] 69.5% | viability, T/C [13] 101% | viability, T/C [14] 111% | viability, T/C [15] 82.3% | viability, T/C [16] 82.5% | viability, T/C [17] 101% | viability, T/C [18] 70.8% | viability, T/C [19] 92.7% | viability, T/C [20] 89.5% | viability, T/C [21] 79.6% | viability, T/C [22] 87.6% | viability, T/C [23] 94.3% | viability, T/C [24] 72.2% | viability, T/C [25] 99.8% | viability, T/C [26] 96.7% | viability, T/C [27] 82.2% | viability, T/C [28] 99.6% | viability, T/C [29] 80.9% | viability, T/C [30] 74.1% | viability, T/C [31] 106% | viability, T/C [32] 96.5% | viability, T/C [33] 97.8% | viability, T/C [34] 104% | viability, T/C [35] 84.9% | viability, T/C [36] 77.7%

COc1cc2cc(C(=O)CCC(=O)O)sc2cc1OC + Nc1ccc(C#CCN(C(=O)Cc2ncc(C(F)(F)F)cc2C(F)(F)F)c2ccc(F)cc2)nn1
> 10 µM: IC50 (second compound 0.0316 µM) | IC50 (second compound 0.1 µM) | IC50 (second compound 0.316 µM) | IC50 (second compound 1 µM) | IC50 (second compound 3.16 µM) | IC50 (second compound 10 µM)
inactive: viability, T/C [1] 94.6% | viability, T/C [2] 116% | viability, T/C [3] 95.8% | viability, T/C [4] 97.8% | viability, T/C [5] 104% | viability, T/C [6] 102% | viability, T/C [7] 106% | viability, T/C [8] 115% | viability, T/C [9] 92.3% | viability, T/C [10] 107% | viability, T/C [11] 121% | viability, T/C [12] 91.5% | viability, T/C [13] 104% | viability, T/C [14] 116% | viability, T/C [15] 96.8% | viability, T/C [16] 99.3% | viability, T/C [17] 97.2% | viability, T/C [18] 89.8% | viability, T/C [19] 104% | viability, T/C [20] 105% | viability, T/C [21] 112% | viability, T/C [22] 105% | viability, T/C [23] 104% | viability, T/C [24] 92.5% | viability, T/C [25] 112% | viability, T/C [26] 104% | viability, T/C [27] 91.8% | viability, T/C [28] 106% | viability, T/C [29] 103% | viability, T/C [30] 103% | viability, T/C [31] 113% | viability, T/C [32] 105% | viability, T/C [33] 119% | viability, T/C [34] 110% | viability, T/C [35] 103% | viability, T/C [36] 105%

COc1ccc([C@@H](O)c2cc(-c3ncnc4cc(N5CCOCC5)ccc34)c(F)cc2Cl)nn1 + Nc1ccc(C#CCN(C(=O)Cc2ncc(C(F)(F)F)cc2C(F)(F)F)c2ccc(F)cc2)nn1
4.69 µM: IC50 (second compound 0.0316 µM)
> 10 µM: IC50 (second compound 10 µM)
5.93 µM: IC50 (second compound 3.16 µM)
5.16 µM: IC50 (second compound 0.316 µM)
inactive: viability, T/C [1] 102% | viability, T/C [2] 91.9% | viability, T/C [3] 86.2% | viability, T/C [4] 64.2% | viability, T/C [5] 54.1% | viability, T/C [6] 44.4% | viability, T/C [7] 92.8% | viability, T/C [8] 91.4% | viability, T/C [9] 82.9% | viability, T/C [10] 64.9% | viability, T/C [11] 58.1% | viability, T/C [12] 42.2% | viability, T/C [13] 90.8% | viability, T/C [14] 114% | viability, T/C [15] 76.1% | viability, T/C [16] 67.3% | viability, T/C [17] 60.7% | viability, T/C [18] 41.1% | viability, T/C [19] 92.4% | viability, T/C [20] 85.4% | viability, T/C [21] 92.1% | viability, T/C [22] 78.6% | viability, T/C [23] 59.8% | viability, T/C [24] 43% | viability, T/C [25] 99.5% | viability, T/C [26] 93.6% | viability, T/C [27] 81.4% | viability, T/C [28] 74% | viability, T/C [29] 51% | viability, T/C [30] 47.3% | viability, T/C [31] 104% | viability, T/C [32] 105% | viability, T/C [33] 86.5% | viability, T/C [34] 81% | viability, T/C [35] 60% | viability, T/C [36] 53.6%
5.13 µM: IC50 (second compound 0.1 µM)
6.14 µM: IC50 (second compound 1 µM)
